Columns and labels:
U87 cells = test: WST1 cell viability assay, U87; type: cell-based; conditions: Homo sapiens, U-87 MG; U87; QBS10072S 1 hour in PBS, TMZ 2 days, read day 7; read-out: LC50 (μM ± SD)
Protocol: (§1) In vitro activities of QBS10072S and temozolomide (TMZ) in U87 and U87-MGMT cells were assessed using the WST1 cell viability assay in 96-well plates in which 500/well of cells were plated in sextuplets for each condition. To avoid cell loss, the following washing and medium removing procedures were all done using a P200 pipet without vacuum aspiration. For QBS10072S treatment, cells were washed with PBS the next day and incubated with 50 μL of various concentrations of QBS10072S in PBS for 1 hour at 37°C. After incubation, 150 μL of growth medium was added to each well. The medium was subsequently changed every two days until day 7. For TMZ treatment, cells were treated with 100 μL of various concentrations of TMZ in a growth medium for 2 days. After incubation, cells were put back in a normal growth medium and continued culturing for five days. In the end, 10 μL of WST1 reagent was added to each well and incubated at 37°C for 4h before subjecting to plate reading at 450 nm and 690nm using an EnSpire multimode plate reader (PerkinElmer). Background (OD690nm) was subtracted and data were normalized to the control. LC50s were determined by non-linear regression using GraphPad Prism (GraphPad Software Inc., San Diego, California)

U87-MGMT cells = test: WST1 cell viability assay, U87-MGMT; type: cell-based; conditions: Homo sapiens; U87-MGMT; QBS10072S 1 hour in PBS, TMZ 2 days, read day 7; read-out: LC50 (μM ± SD)
Protocol: as §1

[1] = system: U251 intracerebral human GBM xenograft; test: U251 intracerebral human GBM xenograft in athymic mice (BLI, survival); type: in vivo, mouse; conditions: temozolomide 4 mg/kg oral gavage daily for 5 days plus RT 1.5 Gy daily for 5 days; vehicle 35
Protocol: Five-week-old female athymic mice (nu/nu, homozygous: Simonsen Laboratories, Gilroy, CA), housed under aseptic conditions, received intracranial tumor cell injection as previously described and as approved by the University of California San Francisco Institutional Animal Care and Use Committee, Protocol #: AN111064-03. Briefly, mice were anesthetized by intraperitoneal injection of ketamine (100 mg/kg) and xylazine (10 mg/kg) and injected with 3 μL of tumor cell suspension (300,000 cells total) into the right caudate-putamen. Coordinates: 3 mm to the right from bregma, on top of the coronal suture, and 3.5 mm depth. Injection rate: ~30 second/uL. For treatment studies, eight mice were used for each group for LN229 studies and nine mice per group for U251 studies. Treatments began when tumors entered the log-phase of growth as measured by luminescence, for the LN229 experiment on Day 21 and for U251 experiments on Day 14.
Dosing levels and frequency are described in the figure legends.
For bioluminescence imaging (BLI), mice were anesthetized as above, then administered 150 mg/kg of luciferin (D-luciferin potassium salt, Gold Biotechnology, St. Louis, MO) via intraperitoneal injection. Ten minutes after luciferin injection, mice were examined for tumor bioluminescence with an IVIS Lumina imaging station and Living Image software (Caliper Life Sciences, Alameda, CA), and regions of interest were recorded as photons per second per steradian per square cm.
Mice were anesthetized via inhalation of 2.5% isoflurane with 1 L of oxygen per minute for five minutes prior to being positioned on an irradiation platform located 16.3 cm from a cesium-137 source (JL Shepherd & Associates, San Fernando, CA). Eyes, respiratory tracts, and bodies were protected with lead shielding. Mice received whole-brain irradiation at a dose rate of 247 cGy/min until 1.5 Gy radiation had been administered. After irradiation, animals were monitored until recovery. Mice were irradiated once daily for five consecutive days. All mice received the first radiation dose when tumors were in a log-phase growth (Day 14) as determined by BLI.
Tumor-bearing mice were treated with temozolomide (TMZ) 4 mg/kg via oral gavage, starting on day 14 post U251 cell injection once daily for five days - concurrent therapy with RT. TMZ was obtained from the UCSF hospital pharmacy and formulated with the Ora-Plus suspending vehicle (Perrigo, Dublin, Ireland) with a working concentration of 1 mg/mL.

hLAT2 = biological target: T1, hLAT2 (Homo sapiens, UniProt Q9UHI5); test: Substrate transport inhibition, [3H]-leucine uptake in LLC-PK1 cells expressing hLAT2; type: cell-based
T1 construct: host or cells: LLC-PK1 (tetracycline-inducible, Invitrogen Gateway pT-REx System)
T1 sequence (Q9UHI5 1-535): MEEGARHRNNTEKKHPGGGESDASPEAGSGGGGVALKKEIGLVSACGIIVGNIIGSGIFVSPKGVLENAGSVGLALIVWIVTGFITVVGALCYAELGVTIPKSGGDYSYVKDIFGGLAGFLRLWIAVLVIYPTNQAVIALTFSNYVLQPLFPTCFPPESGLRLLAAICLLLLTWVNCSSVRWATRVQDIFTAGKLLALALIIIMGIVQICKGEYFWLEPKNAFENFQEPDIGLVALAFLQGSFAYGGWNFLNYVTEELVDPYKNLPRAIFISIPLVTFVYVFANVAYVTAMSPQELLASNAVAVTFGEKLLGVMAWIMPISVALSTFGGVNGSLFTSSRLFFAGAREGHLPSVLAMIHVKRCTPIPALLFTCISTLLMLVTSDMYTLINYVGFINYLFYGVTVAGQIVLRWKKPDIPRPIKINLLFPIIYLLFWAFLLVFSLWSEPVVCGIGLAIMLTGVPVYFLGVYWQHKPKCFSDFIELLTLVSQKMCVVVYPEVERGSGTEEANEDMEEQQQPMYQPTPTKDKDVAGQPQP
T1 sequence (P08195 1-529 partner): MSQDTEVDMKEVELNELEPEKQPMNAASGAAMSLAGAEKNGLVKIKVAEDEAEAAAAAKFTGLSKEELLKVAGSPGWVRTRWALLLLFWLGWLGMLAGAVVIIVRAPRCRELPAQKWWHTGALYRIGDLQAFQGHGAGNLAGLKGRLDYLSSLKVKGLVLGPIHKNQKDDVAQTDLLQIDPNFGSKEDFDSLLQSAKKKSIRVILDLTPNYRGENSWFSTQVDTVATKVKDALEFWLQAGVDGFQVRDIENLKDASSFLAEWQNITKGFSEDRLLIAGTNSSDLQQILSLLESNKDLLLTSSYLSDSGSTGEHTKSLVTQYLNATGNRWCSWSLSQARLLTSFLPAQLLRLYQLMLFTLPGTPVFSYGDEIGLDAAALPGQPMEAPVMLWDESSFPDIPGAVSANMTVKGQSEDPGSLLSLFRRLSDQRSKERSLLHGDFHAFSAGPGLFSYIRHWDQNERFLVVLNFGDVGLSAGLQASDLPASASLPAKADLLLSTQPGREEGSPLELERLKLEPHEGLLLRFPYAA
Protocol: (§2) Substrate transport inhibition studies were conducted with LLC-PK1 cells inducibly expressing either hLAT1 or hLAT2. Cells were plated in growth media with 1 μg/mL doxycycline at 30,000 cells/well in 96-well plates. Sixteen hours after plating, cells were treated with butyrate at a final concentration of 5 mM. The following day, cells were washed with PBS and incubated in the presence or absence of various concentrations of QBS10072S with 30,000 cpm/well of either [3H]-gabapentin (LAT1) or [3H]-leucine (LAT2) in PBS for 15 minutes at room temperature. The non-specific cell-bound activity was determined by the addition of 5 mM unlabeled gabapentin (LAT1) or leucine (LAT2). Unincorporated radioactivity was removed, and cells were washed three times with ice-cold PBS. Cells were lysed by adding scintillation fluid to each well, and cell-associated radioactivity was determined via scintillation counting using a multichannel 96-well plate reader (MicroBeta Trilux, Perkin Elmer, Waltham, MA). Data were expressed as the percent of specific radioactivity uptake in wells with no compound added. LC50s were determined by non-linear curve-fitting using GraphPad Prism (San Diego, CA).

[2] = Cytotoxicity in normal human astrocytes (CellTiter-Glo); type: cell-based; conditions: normal human astrocytes (NHA), read-out: LC50
Protocol: In vitro activity of QBS10072S was assessed using a modified clonogenic cell viability assay in 96-well clear-bottom plates. […] For GBM cell lines, 2000 cells/well were plated. On day 2 (GBM) or day 3 (LLC-PK1) after original plating, cells were washed twice with PBS and incubated with 50 μL of various concentrations of QBS10072S in PBS in at least quadruplicate. After 30 minutes at 37°C, 200 μL of growth medium was added to each well. Clonal populations were allowed to grow until the control wells (mock treatment) were near confluence (7 to 10 days). At this point, 170 μL media were removed and 60 μL CellTiter-Glo® (Promega, Madison, WI) were added to each well. Plates were placed on an orbital shaker for three minutes to lyse the cells and then incubated for an additional 10 minutes at RT to stabilize the luminescent signal. Luminescence was recorded using an EnSpire® Multimode Plate Reader (Perkin Elmer). Background (luminescence from wells incubated with 100 μM melphalan or lomustine) was subtracted and data were normalized to the control. EC50s were determined by non-linear regression using GraphPad Prism.
Cells were incubated with a titration of QBS10072S or melphalan and cell viability was measured by CellTiter-Glo. LC50 values for each compound were determined.

hLAT1 = biological target: T2, hLAT1 (Homo sapiens, UniProt Q01650); test: Substrate transport inhibition, [3H]-gabapentin uptake in LLC-PK1 cells expressing hLAT1; type: cell-based
T2 construct: host or cells: LLC-PK1 (tetracycline-inducible, Invitrogen Gateway pT-REx System)
Protocol: as §2

T2 sequence (Q01650 whole entry, one chain of several): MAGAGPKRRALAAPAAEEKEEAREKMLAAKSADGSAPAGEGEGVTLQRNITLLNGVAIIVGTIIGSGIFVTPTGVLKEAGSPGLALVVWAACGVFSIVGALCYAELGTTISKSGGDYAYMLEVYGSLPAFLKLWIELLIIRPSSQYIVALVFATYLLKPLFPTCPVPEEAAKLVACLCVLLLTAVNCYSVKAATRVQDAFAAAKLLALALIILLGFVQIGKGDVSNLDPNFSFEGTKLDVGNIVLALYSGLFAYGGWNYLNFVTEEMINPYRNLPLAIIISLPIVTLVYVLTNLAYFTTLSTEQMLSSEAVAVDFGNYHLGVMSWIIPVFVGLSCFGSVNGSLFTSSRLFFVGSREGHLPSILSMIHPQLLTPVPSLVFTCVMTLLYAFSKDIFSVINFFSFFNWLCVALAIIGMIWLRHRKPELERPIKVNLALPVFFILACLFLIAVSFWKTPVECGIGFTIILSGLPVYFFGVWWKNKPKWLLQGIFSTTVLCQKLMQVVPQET

Row | SMILES | CC50 (U87 cells) [µM] | CC50 (U87-MGMT cells) [µM] | median survival time [1] [days] | IC50 (hLAT2) [µM] | CC50 at 30 min [2] [µM] | IC50 (hLAT1) [µM]
1 | Cn1nnc2c(C(N)=O)ncn2c1=O [TMZ, temozolomide, reference compound] | 82.3 ± 10.5 | > 200 | 48 |  |  | 
2 | N[C@@H](Cc1ccc(N(CCCl)CCCl)cc1)C(=O)O [Melphalan, melphalan, reference compound] |  |  |  | 390 | 0.86 | 170
